Measured values from publication PMC10459870, “A New Diterpenoid of Indonesian Scoparia dulcis Linn: Isolation and Cytotoxic Activity against MCF-7 and T47D Cell Lines” (Molecules, 2023).
In brackets after ≈: the same amount, converted by molar mass.

What was measured:
[1] = system: MCF-7 breast cancer cells; assay: MTT cytotoxic activity assay, MCF-7; format: cell-based; conditions: for IC50: Homo sapiens, MCF7, MTT, 24 h treatment, mean ± SD; for Selectivity Index (SI) MCF-7: IC50 Vero / IC50 MCF-7
Method: (§1) A cytotoxic test was performed to obtain an overview of the activity of the sample on the inhibition of cancer cells. The parameter used was the inhibition concentration of 50% (IC50), a concentration that inhibits cells by 50% of the cell population. The IC50 value was calculated from the results of a linear regression between log concentration and the percentage of cell viability.
(§2) The cell lines were obtained from the Parasitology Laboratory, Faculty of Medicine, Universitas Gadjah Mada, Yogyakarta, Indonesia. Each MCF-7 and T47D cell was cultured with complete media, namely, DMEM media for MCF-7 and RPMI for T47D, which contained 10% FBS, 2% penicillin–streptomycin, and 0.5% fungzon. Cultures were stored in a 5% CO2 incubator and for harvesting cells using trypsin, as well as sample solvents using DMSO.
(§3) Compound (1) was tested for its cytotoxic activity using an MTT assay on MCF-7 and T47D breast cancer cells. Briefly, 1 × 10^4 MCF-7 and T47D cells/wells were grown in 96 well plates and incubated for 24 h in a CO2 incubator. The cells were treated with sample concentrations of 200, 100, 50, 25, 12.5, and 6.25 μg/mL for MCF-7 and 50, 25, 12.5, 6.25, 3.125, and 1.5625 μg/mL for T47D and then incubated for 24 h in a CO2 incubator. After incubation, the condition of the cells was observed under a microscope. The cell media was discarded followed by washing with phosphate-buffered saline (PBS). Then 0.5 mg/mL MTT reagent, up to 100 µL, was added to each well followed by incubation again for 4 h in a CO2 incubator. The cells were observed under a microscope, and after the formazan was clear, 100 µL of SDS stopper reagent was added in 0.01 N HCl. The plate was incubated at room temperature in a dark place for 1 × 24 h, then the absorbance was read with a microplate reader at a wavelength of 595 nm. Analysis of the absorbance data for the cytotoxic test was carried out by calculating the percentage of viable cells using the following formula.
(§4) IC50 values were calculated using a linear regression between sample concentrations and the percent (%)cell viability.

T47D breast cancer cells [2] = assay: MTT cytotoxic activity assay, T47D; format: cell-based; conditions: for IC50: Homo sapiens, T47D, MTT, 24 h treatment, mean ± SD; for Selectivity Index (SI) T47D: IC50 Vero / IC50 T47D
Method: as §1, §2, §3, §4

Vero cells = assay: MTT cytotoxic activity assay, Vero; format: cell-based; conditions: Chlorocebus sabaeus, mean ± SD
[3] = system: MCF-7 breast cancer cells; assay: Cell cycle distribution by flow cytometry (PI), MCF-7; format: cell-based
Method: (§5) Cell cycle inhibition and apoptosis induction tests were carried out on compound (1). The analysis was performed using the flow cytometry method to determine the percentage of living cells in each phase of the cell cycle.
(§6) This test was carried out on isolated samples (compound (1)). Culture confluent cells were distributed to 6-well plates, each 2000 µL (for treatment and for cell control). After 24 h of incubation, concentration series were made. The cells were washed with PBS, and 1000 µL of the sample solution with a certain concentration series was put in the well. For the control cells, 1000 µL of culture medium was added well. The cells were again incubated for 24 h in the CO incubator. After incubation, media from the 6-well plates were inserted into a conical tube, then washed with 1000 µL PBS and put into the same conical tube. Then, 200 µL trypsin-EDTA 0.25% was added and incubated for 3 min. Then, 1000 µL of culture medium was also added and resuspended until the cells were released one by one. The cells are then transferred to a conical and centrifuged at 2000 rpm for 3 min. For cell cycle observations, a deep cell precipitates conical tube covered with aluminum foil was dissolved with 400 µL of the PI reagent containing 1 mg/mL PI, 10 mg/mL RNAse, and 0.1% (v/v) Triton-X 100. The cells were resuspended and incubated for 5 min, and then the cell suspension was transferred into a flow cytometry tube for analysis (Ayers et al., 2011). For observations of apoptosis, the supernatant was discarded, then 100 µL of Annexin-V-FLUOS staining was added consisting of 100 µL binding buffer, 2 µL Annexin V, and 2 µL PI. This was followed by incubation in a dark space for 10 min and then analysis using a flow cytometer.

T47D breast cancer cells [4] = assay: Cell cycle distribution by flow cytometry (PI), T47D; format: cell-based
Method: as §5
as §6, with “The cells were resuspended and incubated for 5 min, and then the cell suspension was transferred into a flow cytometry tube for analysis (Ayers et al., 2011). For observations of apoptosis, the supernatant was discarded, then 100 µL of Annexin-V-FLUOS staining was added consisting of 100 µL binding buffer, 2 µL Annexin V, and 2 µL PI. This was followed by incubation in a dark space for 10 min and then analysis using a flow cytometer.” left out

[5] = system: MCF-7 breast cancer cells; assay: Apoptosis induction, Annexin V/PI flow cytometry, MCF-7; format: cell-based
Method: (§7) The method used in this study was the detected Annexin V method using flow cytometry, which allowed for observing the induction of apoptosis that occurs in cells following treatment. Annexin V is a member of a family of phospholipid-binding proteins that are strongly negatively charged on the cell membrane. Cell death resulting from apoptosis or necrosis can be differentiated using propidium iodide (PI) staining intercalation with DNA [24].
as §6

T47D breast cancer cells [6] = assay: Apoptosis induction, Annexin V/PI flow cytometry, T47D; format: cell-based
Method: as §7, §6

PPAR-γ = conditions: reported in the literature; read-out: EC50, agonistic activity against PPAR-γ; cited from earlier work

COc1cccc2c1C(=O)c1c(O)c3c(c(O)c1C2=O)C[C@@](O)(C(=O)CO)C[C@@H]3O[C@H]1C[C@H](N)[C@H](O)[C@H](C)O1 [Doxorubicin, reference compound]
IC50 [1]: 16.6 ± 5.85 µg/mL (≈ 30.6 µM) | Selectivity Index (SI) MCF-7 [1]: 4.2 | IC50 (T47D breast cancer cells [2]): 35.1 ± 3.14 µg/mL (≈ 64.5 µM) | Selectivity Index (SI) T47D (T47D breast cancer cells [2]): < 3 | IC50 (Vero cells): 69.5 ± 6.8 µg/mL (≈ 128 µM)

C=C1CC(OC(=O)c2ccccc2)C2C(C)(CO)CC(O)CC2(C)C1CCC(C)=CCO (stereo not drawn) [Compound (1), 2α-hydroxyscopadiol]
IC50 [1]: 70.6 ± 1.54 µg/mL (≈ 159 µM) | Selectivity Index (SI) MCF-7 [1]: 0.51 | cytotoxic activity class, MCF-7 ([1]; grouped according to IC50): strong (“strong cytotoxic” IC50 is 10–100 µg/mL) | IC50 (T47D breast cancer cells [2]): < 3.12 µg/mL | Selectivity Index (SI) T47D (T47D breast cancer cells [2]): > 3 | cytotoxic activity class, T47D (T47D breast cancer cells [2]; grouped according to IC50): very strong (“very strong cytotoxic”: IC50 < 10 µg/mL) | IC50 (Vero cells): 36.5 ± 1.41 µg/mL (≈ 82.5 µM) | % Parent, G1, Cell Cycles against MCF-7 ([3]; 1/2 IC50, 24 h): 76.5% | % Parent, G2-M, Cell Cycles against MCF-7 ([3]; 1/2 IC50, 24 h): 17.2% | % Parent, G1, Cell Cycles against MCF-7 ([3]; 1 IC50, 24 h): 78.4% | % Parent, G1, Cell Cycles against T47D (T47D breast cancer cells [4]; 1/2 IC50, 24 h): 50.9% | % Parent, G1, Cell Cycles against T47D (T47D breast cancer cells [4]; 1 IC50, 24 h): 53.3% | Apoptosis against MCF-7, % Parent, P3 (early apoptosis) ([5]; 1/2 IC50, 24 h): 33.5% | Apoptosis against MCF-7, % Parent, P4 (late apoptosis) ([5]; 1/2 IC50, 24 h): 16.8% | Apoptosis against MCF-7, % Parent, P4 (late apoptosis) ([5]; 1/4 IC50, 24 h): 15.1% | Apoptosis against MCF-7, % Parent, P3 (early apoptosis) ([5]; 1 IC50, 24 h): 80.7% | Apoptosis against MCF-7, % Parent, P4 (late apoptosis) ([5]; 1 IC50, 24 h): 11.7% | Apoptosis against T47D, % Parent, P3 (early apoptosis) (T47D breast cancer cells [6]; 1/2 IC50, 24 h): 6.1% | Apoptosis against T47D, % Parent, P4 (late apoptosis) (T47D breast cancer cells [6]; 1/2 IC50, 24 h): 3.0% | Apoptosis against T47D, % Parent, P3 (early apoptosis) (T47D breast cancer cells [6]; 1/4 IC50, 24 h): 5% | Apoptosis against T47D, % Parent, P3 (early apoptosis) (T47D breast cancer cells [6]; 1 IC50, 24 h): 24.8% | Apoptosis against T47D, % Parent, P4 (late apoptosis) (T47D breast cancer cells [6]; 1 IC50, 24 h): 2.9%

C=C1[C@@H](OC(C)=O)[C@H](OC(=O)c2ccccc2)[C@H]2[C@@](C)(CCC[C@]2(C)C(=O)O)[C@H]1CC/C(C)=C/CO [Compound (3), 4-epi-7α-O-acetylscoparic acid A]
EC50 (PPAR-γ): 900 ± 300 nM
